For data set [1], the system named is HEK293. As to the kind of experiment: Cytotoxicity against human HEK293 cells assessed as inhibition of cell proliferation after 48 hrs by MTT assay. It is filed as cell-based. The conditions noted are these: HEK293, 48 h. For orientation: Formazan colour is commonly taken as a measure of viable cells.
In data set [2] the test system is K562. As to the kind of experiment: Cytotoxicity against human K562 cells assessed as inhibition of cell proliferation after 48 hrs by MTT assay. The data set is classed as functional, cell-based. The conditions noted are these: K562, 48 h.
Data set [3] has as its system HL-60. Put plainly: Cytotoxicity against human HL60 cells assessed as inhibition of cell proliferation after 48 hrs by MTT assay. It is filed as functional, cell-based. The conditions noted are these: HL-60, 48 h.
The subject of data set [4] is Jurkat. As to the kind of experiment: Induction of apoptosis in human Jurkat cells assessed as activation of PARP cleavage at 2 to 4 uM after 24 hrs by western blot analysis. To be noted: dose microM 2-4, time 24.0 hrs. The data set is classed as functional, cell-based. Background: In western blotting, separated proteins are transferred to a membrane and probed.
Data set [5] relates to Jurkat. Put plainly: Induction of apoptosis in human Jurkat cells assessed as caspase 3 activation at 2 to 4 uM incubated for 24 hrs by Western blot analysis. It is filed as functional, cell-based. To be noted: dose microM 2-4, time 24.0 hrs.
For data set [6], the system named is Jurkat. Put plainly: Induction of ROS generation in human Jurkat cells at 2 uM incubated for 12 hrs by flow cytometric analysis relative to control. It is filed as functional. On the technique in general: A flow cytometer gives signals particle by particle.
Data set [7] relates to NB-4. Put plainly: Cytotoxicity against human NB4 cells assessed as inhibition of cell proliferation after 48 hrs by MTT assay. It is filed as functional, cell-based. The conditions noted are these: NB-4, 48 h.
The test system of data set [8] is MOLT-4. Put plainly: Cell cycle arrest in human MOLT-4 cells assessed as decrease in cell population at S phase at 2 to 4 uM after 24 hrs by propidium iodide/RNase staining based flow cytometric analysis. To be noted: dose microM 2-4, time 24.0 hrs. The data set is classed as functional.
Data set [9] relates to MOLT-4. Put plainly: Induction of apoptosis in human MOLT-4 cells assessed as increase in cleaved caspase-3 levels at 4 uM after 24 hrs by Alexafluor-488 goat anti-rabbitIgG staining based flow cytometric analysis relative to control. It is filed as functional.
Data set [10] concerns Jurkat. As to the kind of experiment: Cell cycle arrest in human Jurkat cells assessed as decrease in cell population at S phase at 2 to 4 uM after 24 hrs by propidium iodide/RNase staining based flow cytometric analysis. The data set is classed as functional. The conditions noted are these: dose microM 2-4, time 24.0 hrs.
Data set [11] has as its system MOLT-4. Put plainly: Cytotoxicity against human MOLT4 cells assessed as inhibition of cell proliferation after 48 hrs by MTT assay. The conditions noted are these: MOLT-4, 48 h. The data set is classed as functional, cell-based.
Data set [12] concerns Jurkat. Put plainly: Induction of apoptosis in human Jurkat cells assessed as total apoptotic cells at 2 uM measured after 24 hrs by Annexin V-APC/7-AAD staining based flow cytometric analysis relative to control. The data set is classed as functional.
Data set [13] deals with Jurkat. Put plainly: Induction of apoptosis in human Jurkat cells assessed as caspase 9 activation at 2 to 4 uM incubated for 24 hrs by Western blot analysis. It is filed as functional, cell-based. To be noted: dose microM 2-4, time 24.0 hrs.
Data set [14] relates to Jurkat. As to the kind of experiment: Induction of apoptosis in human Jurkat cells assessed as increase in cleaved caspase-3 levels at 4 uM after 24 hrs by Alexafluor-488 goat anti-rabbitIgG staining based flow cytometric analysis relative to control. It is filed as functional.
Data set [15] can be described thus: Solubility in water by spectrophotometry. It is filed as physicochemical.
The test system of data set [16] is CA46. Put plainly: Cytotoxicity against human CA46 cells assessed as inhibition of cell proliferation after 48 hrs by MTT assay. It is filed as functional, cell-based. The conditions noted are these: CA46, 48 h.
The subject of data set [17] is Jurkat. As to the kind of experiment: Cell cycle arrest in human Jurkat cells assessed as increase in cell population at G0/G1 phase at 2 to 4 uM after 24 hrs by propidium iodide/RNase staining based flow cytometric analysis. The conditions noted are these: dose microM 2-4, time 24.0 hrs. It is filed as functional.
The subject of data set [18] is MOLT-4. Put plainly: Induction of apoptosis in human MOLT-4 cells assessed as caspase 3 activation at 2 to 4 uM incubated for 24 hrs by Western blot analysis. The conditions noted are these: dose microM 2-4, time 24.0 hrs. The data set is classed as functional, cell-based.
For data set [19], the system named is Jurkat. Put plainly: Induction of apoptosis in human Jurkat cells assessed as Notch1 degradation at 2 to 4 uM after 24 hrs by Western blot analysis. The data set is classed as functional, cell-based. To be noted: dose microM 2-4, time 24.0 hrs.
For data set [20], the system named is Jurkat. Put plainly: Induction of ROS generation in human Jurkat cells at 1 uM incubated for 12 hrs by flow cytometric analysis relative to control. The data set is classed as functional.
Data set [21] relates to MOLT-4. Put plainly: Induction of apoptosis in human MOLT-4 cells assessed as caspase 9 activation at 2 to 4 uM incubated for 24 hrs by Western blot analysis. It is filed as functional, cell-based. The conditions noted are these: dose microM 2-4, time 24.0 hrs.
Data set [22] concerns MOLT-4. As to the kind of experiment: Induction of apoptosis in human MOLT-4 cells assessed as decrease in Bcl-2 protein expression at 2 to 4 uM after 24 hrs by Western blot analysis. To be noted: dose microM 2-4, time 24.0 hrs. It is filed as functional, cell-based.
In data set [23] the test system is MOLT-4. As to the kind of experiment: Induction of apoptosis in human MOLT-4 cells assessed as Notch1 degradation at 2 to 4 uM after 24 hrs by Western blot analysis. The data set is classed as functional, cell-based. To be noted: dose microM 2-4, time 24.0 hrs.
For data set [24], the system named is MOLT-4. Put plainly: Induction of apoptosis in human MOLT-4 cells assessed as activation of PARP cleavage at 2 to 4 uM after 24 hrs by western blot analysis. The data set is classed as functional, cell-based. To be noted: dose microM 2-4, time 24.0 hrs.
In data set [25] the test system is MOLT-4. As to the kind of experiment: Induction of apoptosis in human MOLT-4 cells assessed as total apoptotic cells at 4 uM measured after 24 hrs by Annexin V-APC/7-AAD staining based flow cytometric analysis relative to control. It is filed as functional.
The subject of data set [26] is MOLT-4. Put plainly: Cell cycle arrest in human MOLT-4 cells assessed as increase in cell population at G0/G1 phase at 2 to 4 uM after 24 hrs by propidium iodide/RNase staining based flow cytometric analysis. The data set is classed as functional. To be noted: dose microM 2-4, time 24.0 hrs.
For data set [27], the system named is MOLT-4. Put plainly: Induction of apoptosis in human MOLT-4 cells assessed as c-myc degradation at 2 to 4 uM after 24 hrs by Western blot analysis. The data set is classed as functional, cell-based. The conditions noted are these: dose microM 2-4, time 24.0 hrs.
Data set [28] has as its system MOLT-4. As to the kind of experiment: Induction of ROS generation in human MOLT-4 cells at 1 uM incubated for 12 hrs by flow cytometric analysis relative to control. It is filed as functional.
In data set [29] the test system is NALM-6. As to the kind of experiment: Cytotoxicity against human NALM6 cells assessed as inhibition of cell proliferation after 48 hrs by MTT assay. The data set is classed as functional, cell-based. The conditions noted are these: NALM-6, 48 h.
Data set [30] relates to HEK293. As to the kind of experiment: Induction of ROS generation in HEK293 cells at 1 uM incubated for 12 hrs by flow cytometric analysis relative to control. The data set is classed as cell-based. To be noted: human, hek293, 12 h.
Data set [31] concerns Jurkat. As to the kind of experiment: Induction of apoptosis in human Jurkat cells assessed as total apoptotic cells at 4 uM measured after 24 hrs by Annexin V-APC/7-AAD staining based flow cytometric analysis relative to control. It is filed as functional.
Data set [32] deals with HEK293. Put plainly: Induction of ROS generation in HEK293 cells at 2 uM incubated for 12 hrs by flow cytometric analysis relative to control. To be noted: human, hek293, 12 h. It is filed as cell-based.
The subject of data set [33] is Jurkat. Put plainly: Cytotoxicity against human Jurkat cells assessed as inhibition of cell proliferation after 48 hrs by MTT assay. The data set is classed as functional, cell-based.
The test system of data set [34] is MOLT-4. Put plainly: Induction of ROS generation in human MOLT-4 cells at 2 uM incubated for 12 hrs by flow cytometric analysis relative to control. It is filed as functional.
Data set [35] relates to MOLT-4. Put plainly: Induction of apoptosis in human MOLT-4 cells assessed as total apoptotic cells at 2 uM measured after 24 hrs by Annexin V-APC/7-AAD staining based flow cytometric analysis relative to control. The data set is classed as functional.
The subject of data set [36] is Jurkat. As to the kind of experiment: Induction of apoptosis in human Jurkat cells assessed as c-myc degradation at 2 to 4 uM after 24 hrs by Western blot analysis. The data set is classed as functional, cell-based. To be noted: dose microM 2-4, time 24.0 hrs.
Data set [37] concerns Jurkat. As to the kind of experiment: Induction of apoptosis in human Jurkat cells assessed as decrease in Bcl-2 protein expression at 2 to 4 uM after 24 hrs by Western blot analysis. The conditions noted are these: dose microM 2-4, time 24.0 hrs. It is filed as functional, cell-based.

Structures can show the parent of a compound that is named as a salt. Active and inactive are the calls of the source. The rule behind the calls is not given here.

The term IC50 denotes the concentration that gives 50% inhibition. As to `CCCCCCCC[P+](CCCCCCCC)(CCCCCCCC)Cc1ccc(COc2ccc(OCc3ccc(CSC(=N)N)cc3)c3c2C(=O)c2ccccc2C3=O)cc1`, the IC50 in data set [1] stood at 6.66 µM; in data set [2], 8.04 µM; in data set [3] it was 5.16 µM.

As usually defined, the solubility is the dissolved amount per volume that the medium holds. A high value points to much dissolved substance. Turning to `CCCCCCCC[N+](C)(CCCCCCCC)Cc1ccc(COc2ccc(OCc3ccc(CBr)cc3)c3c2C(=O)c2ccccc2C3=O)cc1.[Br-]`, the result in data set [4], in [5], in data set [8], in [10], in data set [13] and in [17] was Active. For the same compound, the outcome in [18], in [21], in [24] and in data set [26] was Active. In addition, the IC50 in [1] worked out at 2.44 µM; in data set [7], 2.4 µM; in data set [2], 2.31 µM; in [11], 2.61 µM; in data set [3], 1.4 µM; in data set [16], 3.51 µM. Besides, the IC50 in [29] came to 1.24 µM; in [33], 2.8 µM. For the same compound, the Activity in [6] is 38.1%; in [9] it was 33%; in data set [12], 25.57%; in [14], 43.4%; in data set [19] it was “Dose-dependent effect”; in data set [20] it was 18.63%. In addition, the Activity result is “Dose-dependent effect” in data set [22]; “Dose-dependent effect” in data set [23]; 39.67% in data set [25]; “Dose-dependent effect” in [27]; 22.2% in data set [28]; 2.78% in data set [30]. Besides, the Activity in data set [31] is 48.96%; in data set [32], 62.23%; in data set [34] it was 73.97%; in data set [35], 22.76%; in [36], “Dose-dependent effect”; in [37], “Dose-dependent effect”. The solubility in data set [15] was < 10 µg/mL.

In the case of `CCCCCCCC[N+](C)(CCCCCCCC)Cc1cc(O)c2c(c1)Cc1cccc(O)c1C2=O`, the IC50 in data set [1], in data set [2] and in [3] was > 40 µM in each case.

In the case of `CCCCCCCC[N+](C)(CCCCCCCC)Cc1ccc(COc2ccc(OCc3ccc(C[N+](CCO)(CCO)CCO)cc3)c3c2C(=O)c2ccccc2C3=O)cc1.[Br-].[Br-]`, the values for the IC50 in data set [1], in [2] and in data set [3] were 9.43 µM, 10.9 µM and 7.89 µM, respectively. The concentration in solution in [15] (solubility) was 28200 µg/mL.

As to `COc1cccc2c1C(=O)c1c(O)c3c(c(O)c1C2=O)C[C@@](O)(C(=O)CO)C[C@@H]3O[C@H]1C[C@H](N)[C@H](O)[C@H](C)O1` [DOXORUBICIN HYDROCHLORIDE], the IC50 in data set [1] was 0.37 µM; in data set [2], 0.63 µM; in [3], 0.14 µM.

In the case of `Br.Br.N=C(N)SCc1ccc(COc2ccc(OCc3ccc(CSC(=N)N)cc3)c3c2C(=O)c2ccccc2C3=O)cc1`, the IC50 in [1] amounted to 3.19 µM; in data set [2] it was 1.81 µM; in [3], 3.35 µM. The solubility in data set [15] is 59.3 µg/mL.

`CCCCCCCC[N+](C)(CCCCCCCC)Cc1ccc(COc2ccc(OCc3ccc(C[N+](C)(CCCCCCCC)CCCCCCCC)cc3)c3c2C(=O)c2ccccc2C3=O)cc1`: the IC50 amounted to 2.99 µM in data set [1], 6.78 µM in data set [2] and 3.49 µM in data set [3].

In the case of `CCCCCCCC[N+](C)(CCCCCCCC)Cc1cc(O)c2c(c1)C(=O)c1cccc(O)c1C2=O`, the IC50 in data set [1] was 2.2 µM; in [2] it was 2.78 µM; in data set [3] it was 1.11 µM.

Regarding `CCCCCCCC[P+](CCCCCCCC)(CCCCCCCC)Cc1ccc(COc2ccc(OCc3ccc(CBr)cc3)c3c2C(=O)c2ccccc2C3=O)cc1`, the IC50 in [1] came out at 2.17 µM; in data set [2], 1.24 µM; in [3], 0.9 µM.

As for `O=C1c2ccccc2C(=O)c2c(OCc3ccc(CBr)cc3)ccc(OCc3ccc(CBr)cc3)c21`, the IC50 in [1], in [2] and in [3] was > 40 µM in each case.

The values above are taken from ChEMBL document CHEMBL4665635, “Design and synthesis of various quinizarin derivatives as potential anticancer agents in acute T lymphoblastic leukemia” (Bioorg Med Chem, 2019).
